{
  "source": "patent EP0535528A1",
  "about": "“Antibacterial 5-Nitro-1-methyl-imidazolyl-3-terbutyl-2-hydroxy-aryl-carbinols” (EURORESEARCH S.r.L., priority 1991, dated 1993)",
  "key": {"Helicobapter pylori": {"tested_on": "Helicobapter pylori", "assay": "Minimal inhibiting concentration (agar dilution)", "assay_type": "cell-based", "description": "Substances under examination: EU11100, EU11102, EU11103, EU11104. Comparison substance: Metronidazole Solubilization of the substances: All the substances to be studied are dissolved at room temperature in DMSO. […] 10 strains of Helicobapter pylori are used of recent clinical isolation […] The sowing of the bacteria, prepared as described in the preceding test is carried out by means a \"multi-point inoculator\". After 48 hours incubation under the condition described in the preceding test, the plates are examined and the Minimal Inhibiting Concentration is evaluated, namely that dose corresponding to growth absence."}, "[1]": {"assay": "Oral and intraperitoneal acute toxicity in mice (LD50, Probits method)", "assay_type": "in vivo", "details": "mouse, in vivo, Swiss female mice, 14 days observation", "description": "(§1) 20 Swiss female albino mice are used for this test of the average weight of 20 g (±2), coming from Nossan breeding .\n(§2) Cages: in Makrolon® with saw dust litter, Number of animals per cage: 5 Acclimation period: 1 week Temperature: 22°C (± 2°C) Humidity : 60%, Diet: pellets for mice produced by Nossan firm, Water ad libitum Fast before the treatment: 16 hours\n(§3) Oral by gastric route and intraperitoneal.\n(§4) The substances to be studied: EU11100, EU11102, EU11103, EU11104 are treated with 0.5% carboxymethylcellulose in spring water, for the oral administration, whereas the same substances are intraperitoneally administered in the form of a physiological solution .\n(§5) For each of the above mentioned substances, a mother suspension is prepared having a concentration in the active ingredient of 250 mg/ml for the oral administration, and analogously a mother suspension is prepared for the intraperitoneal administration having a concentration of the desired active principle of 100 mg/ml.\n(§6) The following doses are used • a) oral route: 5000 mg/kg • b) intraperitoneal route : 2000 mg/kg\n(§7) If mortality is observed at the above mentioned doses, other doses are administered in order to obtain a dose-response curve.\n(§8) 5 animals are used for every utilized concentration.\n(§9) After the administration of the above substances the animals are kept under observation for 14 days , during which the mortality and the behaviour is observed.\n(§10) LD₅₀ is determined on the base of the cumulative mortality observed in the successive 14 days after the administration by using the Probits method."}, "Swiss female albino mice": {"tested_on": "Swiss female albino mice", "assay": "Oral and intraperitoneal acute toxicity in mice (LD50, Probits method)", "assay_type": "in vivo", "details": "for Mortality per day: 5 animals; for mortality: intraperitoneal", "description": "as §1, §2, §3, §4, §5, §6, §7, §8, §9, §10"}, "[2]": {"assay": "Direct mutation test (16 h treatment in the growth step)", "assay_type": "cell-based", "description": "The tests are carried out on the compound EU11100 with or without metabolic activity for a treatment period of 16 h in the growth step. The used concentrations are 0.25-0.50 mg/ml without metabolic activation and 0.075-0.150 mg/ml with metabolic activation."}, "[3]": {"assay": "solubility of the isolated product", "assay_type": "physicochemical"}, "[4]": {"details": "section A (without), 0.25 mg/ml"}, "[5]": {"details": "section A (without), 0.50 mg/ml"}},
  "note": "Like-named read-outs stand apart in the source and are kept apart here.",
  "data": [
    {"smiles": "COc1cc(C(O)c2ncc([N+](=O)[O-])n2C)c(O)c(C(C)(C)C)c1", "note": "(stereo not shown) [EU11100, 5-nitro-1-methyl-imidazolyl-3-terbutyl-2-hydroxy-5-methoxy-phenyl-carbinol]", "values": [
      {"measurement": "MIC50", "setting": "Helicobapter pylori; 10 strains", "value": 0.03, "unit": "µg/mL"},
      {"measurement": "MIC90", "setting": "Helicobapter pylori; 10 strains", "value": 0.06, "unit": "µg/mL"},
      {"measurement": "MIC range", "setting": "Helicobapter pylori; 10 strains", "value": "0.015 to 0.016", "unit": "µg/mL"},
      {"measurement": "MIC values", "setting": "Helicobapter pylori; in words, compared with Metronidazole", "value": "very low MIC values"},
      {"measurement": "MIC", "setting": "Helicobapter pylori; strain 1", "value": 0.12, "unit": "µg/mL"},
      {"measurement": "MIC", "setting": "Helicobapter pylori; strain 2", "value": 0.03, "unit": "µg/mL"},
      {"measurement": "MIC", "setting": "Helicobapter pylori; strain 3", "value": 0.03, "unit": "µg/mL"},
      {"measurement": "MIC", "setting": "Helicobapter pylori; strain 4", "value": 0.03, "unit": "µg/mL"},
      {"measurement": "MIC", "setting": "Helicobapter pylori; strain 5", "value": 0.015, "unit": "µg/mL"},
      {"measurement": "MIC", "setting": "Helicobapter pylori; strain 6", "value": 0.03, "unit": "µg/mL"},
      {"measurement": "MIC", "setting": "Helicobapter pylori; strain 7", "value": 0.06, "unit": "µg/mL"},
      {"measurement": "MIC", "setting": "Helicobapter pylori; strain 8", "value": 0.03, "unit": "µg/mL"},
      {"measurement": "MIC", "setting": "Helicobapter pylori; strain 9", "value": 0.03, "unit": "µg/mL"},
      {"measurement": "MIC", "setting": "Helicobapter pylori; strain 10", "value": 0.03, "unit": "µg/mL"},
      {"measurement": "LD50 at 336 h", "setting": "[1]; po, per os, read-out: LD50 os", "value": "> 5000", "unit": "mg/kg"},
      {"measurement": "LD50 at 336 h", "setting": "[1]; ip, read-out: LD50 i.p.", "value": 890, "unit": "mg/kg"},
      {"measurement": "LD50 i.p.", "setting": "Swiss female albino mice; Swiss female mice, ip, 14 days observation, 20160 min", "value": "LD50 i.p.= 890 mg/Kg (confidence limits: 781 - 1014)"},
      {"measurement": "Observation on the behaviour", "setting": "Swiss female albino mice; ip, 500 mg/Kg", "value": "500 mg/Kg: no alteration"},
      {"measurement": "Mortality per day", "setting": "Swiss female albino mice; ip, 500 mg/Kg, day 1", "value": 0},
      {"measurement": "Observation on the behaviour", "setting": "Swiss female albino mice; ip, 750 mg/Kg", "value": "750 mg/Kg: motor activity reduction"},
      {"measurement": "Mortality per day", "setting": "Swiss female albino mice; ip, 750 mg/Kg, day 1", "value": 1},
      {"measurement": "Mortality per day", "setting": "Swiss female albino mice; ip, 1000 mg/Kg, day 1", "value": 3},
      {"measurement": "Mortality per day", "setting": "Swiss female albino mice; ip, 1500 mg/Kg, day 1", "value": 5},
      {"measurement": "Mortality per day", "setting": "Swiss female albino mice; ip, 2000 mg/Kg, day 1", "value": 5},
      {"measurement": "Death within (time)", "setting": "Swiss female albino mice; ip, doses 2000 - 1500 - 1000 mg/Kg", "value": "6 to 24", "unit": "h"},
      {"measurement": "Observation on the behaviour", "setting": "Swiss female albino mice; ip, doses 2000 - 1500 - 1000 mg/Kg, after 15-30'", "value": "considerable behaviouristic alteration, such as the loss of body-righting reflex"},
      {"measurement": "Observation on the behaviour", "setting": "Swiss female albino mice; ip, doses 2000 - 1500 - 1000 mg/Kg, after 15-30', listed as EU 11100", "value": "considerable reduction motor activity and subsequent loss of body righting reflex"},
      {"measurement": "mortality", "setting": "Swiss female albino mice; mice, 1500 mg/kg", "value": 100, "unit": "%"},
      {"measurement": "mortality", "setting": "Swiss female albino mice; mice, 2000 mg/kg", "value": 100, "unit": "%"},
      {"measurement": "toxicity when intraperitoneally administered", "setting": "Swiss female albino mice; mice, intraperitoneal, 2000, 1500 and 1000 mg/kg", "value": "toxic"},
      {"measurement": "toxicity when orally administered", "setting": "Swiss female albino mice; mice, oral, 5000 mg/kg", "value": "not toxic"},
      {"measurement": "Observation on the behaviour", "setting": "Swiss female albino mice; os, 5000 mg/Kg", "value": "No alteration"},
      {"measurement": "Mortality per day", "setting": "Swiss female albino mice; os, 5000 mg/Kg, day 1", "value": 0},
      {"measurement": "Mortality per day", "setting": "Swiss female albino mice; os, 5000 mg/Kg, day 2", "value": 0},
      {"measurement": "Mortality per day", "setting": "Swiss female albino mice; os, 5000 mg/Kg, day 3", "value": 0},
      {"measurement": "Mortality per day", "setting": "Swiss female albino mice; os, 5000 mg/Kg, day 4", "value": 0},
      {"measurement": "Mortality per day", "setting": "Swiss female albino mice; os, 5000 mg/Kg, day 5", "value": 0},
      {"measurement": "Mortality per day", "setting": "Swiss female albino mice; os, 5000 mg/Kg, day 6", "value": 0},
      {"measurement": "Mortality per day", "setting": "Swiss female albino mice; os, 5000 mg/Kg, day 7", "value": 0},
      {"measurement": "Mortality per day", "setting": "Swiss female albino mice; os, 5000 mg/Kg, day 8", "value": 0},
      {"measurement": "Mortality per day", "setting": "Swiss female albino mice; os, 5000 mg/Kg, day 9", "value": 0},
      {"measurement": "Mortality per day", "setting": "Swiss female albino mice; os, 5000 mg/Kg, day 10", "value": 0},
      {"measurement": "Mortality per day", "setting": "Swiss female albino mice; os, 5000 mg/Kg, day 11", "value": 0},
      {"measurement": "Mortality per day", "setting": "Swiss female albino mice; os, 5000 mg/Kg, day 12", "value": 0},
      {"measurement": "Mortality per day", "setting": "Swiss female albino mice; os, 5000 mg/Kg, day 13", "value": 0},
      {"measurement": "Mortality per day", "setting": "Swiss female albino mice; os, 5000 mg/Kg, day 14", "value": 0},
      {"measurement": "Frequency of: Mutation", "setting": "[2]; [4]", "value": 1.60},
      {"measurement": "Survival (%)", "setting": "[2]; [4]", "value": 71.1, "unit": "%"},
      {"measurement": "Frequency of: Mutation", "setting": "[2]; [5]", "value": 0.00},
      {"measurement": "Survival (%)", "setting": "[2]; [5]", "value": 36.4, "unit": "%"},
      {"measurement": "Frequency of: Mutation", "setting": "[2]; section B (with), 0.075 mg/ml", "value": 2.11},
      {"measurement": "Survival (%)", "setting": "[2]; section B (with), 0.075 mg/ml", "value": 89.9, "unit": "%"},
      {"measurement": "Frequency of: Mutation", "setting": "[2]; section B (with), 0.150 mg/ml", "value": 3.22},
      {"measurement": "Survival (%)", "setting": "[2]; section B (with), 0.150 mg/ml", "value": 29.5, "unit": "%"},
      {"measurement": "solubility", "setting": "[3]", "value": "Soluble in CH₃OH, benzene, acetone, ethyl ether; insoluble in water and ligroin."}
    ]}
  ]
}
